Each structure is given as a SMILES string. Where two headings read alike, the source gives them in different places.

Holding throughout (format): cell-based
In assay [1] the test system is costimulatory molecules of LPS-stimulated human dendritic cells. As to the kind of experiment: Costimulatory molecules on LPS-stimulated human monocyte-derived dendritic cells (flow cytometry). The note with it: Dendritic cell, 24 h, LPS 0.1 μg/ml, D-amino acid 10 μM, mean ± SD of three experiments, relative to LPS-induced expression. How it is done:
Generation of human monocyte-derived dendritic cells. Peripheral venous blood was obtained from healthy volunteers aged between 20 and 50 years after informed consent. Individuals with allergic disease, acute infection or taking any medication 20 days prior to blood sampling or any history of smoking (personal interview) were excluded prior to blood sampling. All experiments were conducted according to the principles expressed in the Declaration of Helsinki.
(§1) Peripheral blood mononuclear cells (PBMC) were isolated from heparinized whole blood by density gradient centrifugation (2000 rpm, 22° C., 20 min) (Biocoll, Biochrom AG, Berlin, Germany). […] Purity and viability of DCs was assessed by flow cytometry (FIG. 9A-C).
Costimulatory molecules on human DCs. The following primary monoclonal antibodies were used: CD83 fluorescein isothiocyanate (FITC); CD1a phycoerythrin (PE); CD86-FITC; CD80-PE; CD14 allophycocyanine (APC); CD40-APC; CD3-peridinin chlorophyll protein (PerCP); HLA-DR-PerCP; mouse immunoglobulins G1 (IgG1) mouse immunoglobulins G1 (IgG1) κ were used as isotype controls using the corresponding fluorochromes (all purchased from BD Biosciences, Heidelberg, Germany). To account for donor dependent variability of DC surface markers, all data were normalized to the expression induced by LPS which was set to 100% after subtraction of background values (FACS Canto, FACS DIVA software, Version 5.0.3, BD Biosciences, Heidelberg, Germany). Murine DC subsets and CD4^+ T cells. Single cell suspensions of splenocytes were obtained by filtering spleens through a 70 μm strainer. Samples were stained with CD3-PB (1:200, Biolegend, San Diego, USA), CD4-APC-H7 (BD, 1:400), CD11c-APC-Cy7 (1:100), Mhc-II-Percp-Cy5 (1:100), CD11b-FITC (1:100), CD80-AF647, CD40-APC (1:100). For intracellular cytokines, total spleen cells were stimulated with anti-CD3 (4 μg/mL, BD Bioscience, Heidelberg, Germany) and anti-CD28 (30 ng/mL, BD Bioscience, Heidelberg, Germany) for 16 h. 1×10^6 of total lung cells were stimulated for 16 h with MACSiBead particles coated with anti-CD3 and anti-CD28 using the T cell activation/expansion kit (Miltenyi Biotec, Bergisch Gladbach, Germany) in TexMACS medium (Miltenyi Biotec) according to the manufactures recommendations. Prior to staining, cells were treated with monensin (0.7 μL/mL, BD Golgi Stop, BD Bioscience, Heidelberg, Germany) for 6 h at 37° C. and intracellularly stained for II-4-PE (1:100, eBioscience, Vienna, Austria according to the manufacturer's protocols. Intracellular staining for Foxp3 was performed by using the Foxp3/Transcription Factor Staining buffer set (eBiosciences, Vienna, Austria) according to the manufacturer's recommendations.
Bioassays for screening for immune modulatory activity in probiotic supernatants. Two biological assays based on down-modulation of costimulatory molecules on human DCs, and of CCL17-secretion by a human Hodgkin lymphoma T cell line (KM-H2) were set up. Human immature DCs were matured with 0.1 μg/mL lipopolysaccharide (LPS) from E. coli (Sigma-Aldrich, St. Louis, USA) in the presence or absence of 200 μL bacteria free supernatants for 24 h followed by flow cytometric analysis of costimulatory molecules.

The test system of a further assay is human LPS treated DCs. As to the kind of experiment: Cytokine secretion of human DCs (multiplex assay). The note with it: for IFN-g / IL-5 / IL-10 / IL-12: 200 μl supernatant or amino acid 10 μM, 14 h. How it is done:
as §1
[…] For probiotic supernatants, blank CDM1 was used as medium control. […] IL-5, IFN-gamma, IL-12, and IL-10, were quantified by a multiplex assay (Milliplex Human Cytokine Immunoassay, Millipore GMbH Schalbach, Germany) as described by the manufacturer.

Assay [2] has as its system CCL17 secretion of human Hodgkin lymphoma KM-H2 cells. As to the kind of experiment: CCL17 secretion bioassay with KM-H2 cells (ELISA). Conditions: different concentrations, 24 h. The method, then:
Human T cell line KM-H2. The human Hodgkin lymphoma T cell line (KM-H2) was purchased from the Leibniz Institute DSMZ-German Collection of Microorganisms and Cell Cultures, Braunschweig, Germany. 3-5×10^6 KM-H2 cells were grown in 4 mL RPMI 1640 per well in 6-well-plates (Nunc, Wiesbaden, Germany). All eukaryotic cells were cultured in 5% CO2 at 37° C. (HeraCell 240 and Heraeus BDD 6220, Thermo Fisher Scientific, Waltham, USA). Viability of cells after treatment with bacterial supernatants was assessed by trypan blue, 7-AAD and CellTiter-Blue® staining. (FIG. 9A-C)
Quantification of CCL17 and cytokines in eukaryotic cell culture supernatants. CCL17 was quantified in cell culture supernatants of KM-H2 cells using ELISA reagent Quantikine CCL17/TARC, (R&D Systems, Minneapolis, USA) according to the manufacturer's instructions (ELISA reader MRXII, Thermo Fisher Scientifc, Waltham, USA).
Bioassays for screening for immune modulatory activity in probiotic supernatants. Two biological assays based on down-modulation of costimulatory molecules on human DCs, and of CCL17-secretion by a human Hodgkin lymphoma T cell line (KM-H2) were set up. […]
Similarly, 200 μL supernatants were added to 3-5×10^6 KM-H2 cells for 24 h. Supernatants were collected from KM-H2 by centrifugation and stored at −80° C. until quantification of CCL17. […]

[3] abbreviates: read-out: Percentage of CD40 expressing mature DCs.
[4] abbreviates: read-out: Percentage of CD80 expressing mature DCs.
Where [5] appears, read: read-out: Percentage of CD83 expressing mature DCs.
Where [6] appears, read: read-out: Percentage of CD86 expressing mature DCs.
Setting [7] is: read-out: Percentage of HLA-DR expressing mature DCs.

Turning to `CC[C@@H](C)[C@@H](N)C(=O)O` [D-isoleucine], the activity at 10 µM in assay [1] (setting [3]) is 100 ± 2.4%; in assay [1] (setting [4]) it was 98.2 ± 1.5%; in assay [1] (setting [5]), 100 ± 1.1%; in assay [1] (setting [6]) it was 99.8 ± 1.2%; in assay [1] (setting [7]), 100.1 ± 0.3%.

For the molecule `N[C@H](Cc1c[nH]cn1)C(=O)O` [D-histidine], the activity at 10 µM in assay [1] (setting [3]) is 101 ± 3.2%; in assay [1] (setting [4]), 102 ± 0.9%; in assay [1] (setting [5]), 103.1 ± 0.3%; in assay [1] (setting [6]), 102.5 ± 0.4%; in assay [1] (setting [7]) it was 99.9 ± 0.9%.

Take `N[C@H](Cc1ccc(O)cc1)C(=O)O` [D-tyrosin]: the activity at 10 µM came to 100 ± 1.3% in assay [1] (setting [3]); 101.6 ± 0.4% in assay [1] (setting [4]); 101.6 ± 0.6% in assay [1] (setting [5]); 102.2 ± 0.9% in assay [1] (setting [6]); 98.4 ± 2.4% in assay [1] (setting [7]).

Regarding `CC(C)[C@@H](N)C(=O)O` [D-valine], the activity at 10 µM in assay [1] (setting [3]) was 101 ± 2.4%; in assay [1] (setting [4]) it was 99.6 ± 2%; in assay [1] (setting [5]), 102 ± 1.2%; in assay [1] (setting [6]), 101.8 ± 0.9%; in assay [1] (setting [7]), 100 ± 1%.

As to `C[C@H](O)[C@@H](N)C(=O)O` [D-threonine], the activity at 10 µM in assay [1] (setting [3]) came out at 101 ± 1.5%; in assay [1] (setting [4]), 100.8 ± 0.4%; in assay [1] (setting [5]), 102.6 ± 0.5%; in assay [1] (setting [6]), 102.1 ± 0.7%; in assay [1] (setting [7]), 97.1 ± 3.9%.

Regarding `N[C@H](CO)C(=O)O` [D-serine], the activity at 10 µM in assay [1] (setting [3]) is 101 ± 1.1%; in assay [1] (setting [4]) it was 100 ± 2.8%; in assay [1] (setting [5]) it was 100.8 ± 0.3%; in assay [1] (setting [6]) it was 101 ± 2.8%; in assay [1] (setting [7]) it was 98.6 ± 0.6%.

In the case of `CSCC[C@@H](N)C(=O)O` [D-methionine], the activity at 10 µM was determined as 102.7 ± 0.6% in assay [1] (setting [3]); 100.4 ± 0.2% in assay [1] (setting [4]); 102 ± 2.2% in assay [1] (setting [5]); 102 ± 2.5% in assay [1] (setting [6]); 98.9 ± 2% in assay [1] (setting [7]).

`C[C@@H](N)C(=O)O` [D-alanine]: the activity at 10 µM came out at 102 ± 3.4% in assay [1] (setting [3]); 98.3 ± 2.6% in assay [1] (setting [4]); 97.7 ± 2.3% in assay [1] (setting [5]); 99.2 ± 2.1% in assay [1] (setting [6]); 98.1 ± 1.1% in assay [1] (setting [7]).

With `N[C@H](Cc1ccccc1)C(=O)O` [D-phenylalanine], the activity at 10 µM came out at 100 ± 2.7% in assay [1] (setting [3]); 92.4 ± 3.5% in assay [1] (setting [4]); 99.6 ± 2% in assay [1] (setting [5]); 99.2 ± 3.3% in assay [1] (setting [6]); 98 ± 3.2% in assay [1] (setting [7]).

For `O=C(O)[C@@H]1CCCN1` [L-Pro, L-Prolin], in the assay with human LPS treated DCs (with LPS 0.1 μg/ml), the “Ratio IL-5/IFN-g” value is listed as 0.027, the “Ratio IL-10/IL-12” value was determined as 0.003, the IFN-g was 2133.90 pg/mL and the IL-5 turned out to be 57.70 pg/mL. In the assay with human LPS treated DCs (with LPS 0.1 μg/ml), this molecule returned an IL-10 of 6.00 pg/mL and an IL-12 of 1938.00 pg/mL. Besides, in the assay with human LPS treated DCs (without LPS), the “Ratio IL-5/IFN-g” value worked out at 0.166, the IFN-g stood at 88.90 pg/mL, the IL-5 turned out to be 14.80 pg/mL and the IL-12 worked out at 99.80 pg/mL.

Turning to `N[C@@H](Cc1c[nH]c2ccccc12)C(=O)O` [L-Trp, L-Tryptophan], the “immune activity of synthetic tryptophan isomers in the CCL17 bioassay” value in assay [2] was “inactive”. Further, in the assay with human LPS treated DCs (with LPS 0.1 μg/ml), the “Ratio IL-5/IFN-g” value was determined as 0.030, the “Ratio IL-10/IL-12” value was 0.002, the IFN-g was determined as 2031.50 pg/mL and the IL-5 was determined as 61.40 pg/mL. Besides, in the assay with human LPS treated DCs (with LPS 0.1 μg/ml), the IL-10 is 4.90 pg/mL and the IL-12 worked out at 1993.00 pg/mL. Further, in the assay with human LPS treated DCs (without LPS), the “Ratio IL-5/IFN-g” value amounted to 0.267, the “Ratio IL-10/IL-12” value amounted to 0.065, the IFN-g is 45.00 pg/mL and the IL-5 came to 12.00 pg/mL. In the assay with human LPS treated DCs (without LPS), this molecule displayed an IL-10 of 5.70 pg/mL and an IL-12 of 88.30 pg/mL.

For the molecule `O=C(O)[C@H]1CCCN1` [D-proline], in assay [1] (setting [3]), the activity at 10 µM worked out at 99.2 ± 1.3%. Moreover, the activity at 10 µM in assay [1] (setting [4]) was found to be 100.3 ± 0.1%. Moreover, the activity at 10 µM in assay [1] (setting [5]) was determined as 100.9 ± 0.4%. Moreover, the activity at 10 µM in assay [1] (setting [6]) stood at 101 ± 1.9%. For the same molecule, in assay [1] (setting [7]), the activity at 10 µM was 98.4 ± 2.6%. Moreover, in the assay on human LPS treated DCs (with LPS 0.1 μg/ml), the “Ratio IL-5/IFN-g” value was 0.030, the “Ratio IL-10/IL-12” value is listed as 0.002, the IFN-g is 2295.40 pg/mL and the IL-5 amounted to 69.10 pg/mL. Also, in the assay on human LPS treated DCs (with LPS 0.1 μg/ml), the IL-10 was found to be 4.00 pg/mL and the IL-12 was determined as 1911.90 pg/mL. In addition, in the assay with human LPS treated DCs (without LPS), the “Ratio IL-5/IFN-g” value was found to be 0.171, the “Ratio IL-10/IL-12” value is 0.065, the IFN-g came out at 92.60 pg/mL and the IL-5 is 15.80 pg/mL. In the assay on human LPS treated DCs (without LPS), this molecule yielded an IL-10 of 5.90 pg/mL and an IL-12 of 90.60 pg/mL.

Consider `CC(C)C[C@@H](N)C(=O)O` [D-leucine], for which the activity at 10 µM in assay [1] (setting [3]) was determined as 100 ± 1.7%; in assay [1] (setting [4]) it was 100 ± 1.6%; in assay [1] (setting [5]), 97.1 ± 2.4%; in assay [1] (setting [6]), 102 ± 1.3%; in assay [1] (setting [7]), 98 ± 10%.

Values taken from patent publication US10857128B2, “Methods and compositions for treating inflammatory diseases” (Helmholtz Zentrum München Deutsches Forschungszentrum für …, priority 2017, dated 2020).
